This note sets out measurements from patent US20260240820A1, “METHOD FOR CONTROLLING MEMBRANE POTENTIAL-DEPENDENT ION CHANNEL THROUGH TYPE I TASTE RECEPTORS (T1RS)” (ION CHAT RESEARCH CORPORATE, priority 2022, published 2026).

For data set [1], the system named is SH-SY5Y cells. The data set is described as follows: Cell morphology observation, SH-SY5Y cells. The note with it: 120 μM; undifferentiated SH-SY5Y cells. It counts as cell-based, human.
Data set [2] relates to Nav1.6. The data set is described as follows: Patch-clamp recording of VGSC current in HEK (Nav1.6) cells. The settings on record: HEK Nav1.6, prepulse −80 mV; read-out: IC50 (VGSC inhibition). It counts as cell-based, human. Background: In patch-clamp work, channel activity is measured electrically.
Data set [3] has as its system VGSC. The data set is described as follows: Patch-clamp recording of VGSC current, cell type not specified or several cell types (summary statements). The settings on record: for IC50: read-out: IC50 for inhibition of VGSC; for Enhancement of VGSC current at high(er) concentration: high concentration (desensitization). It counts as cell-based, human.
Data set [4] relates to Nav1.5. Nature of the data set: Patch-clamp (voltage clamp) recording of VGSC current in HEK cells stably expressing Nav1.5. The settings on record: for IC50: read-out: IC50 (VGSC inhibition).
For data set [5], the system named is Nav1.1. The data set is described as follows: Patch-clamp recording of VGSC current in HEK (Nav1.1) cells. It counts as cell-based, human. An excerpt:
The cells used in the previous (18-1) experiment were cardiac-type VGSC cells. In this experiment, HEK (Nav1.1) and HEK (Nav1.6) cells, which are considered neuronal VGSC cells, were created. The effects of four peptides—Aβ25-35, Aβ1-38, Aβ1-40, and Aβ1-42—were examined using the same experimental protocol as in (18-1).

The test system of data set [6] is Nav1.5 in T1R3-silenced HEK cells. Nature of the data set: VGSC current in HEK Nav1.5 cells with silenced T1R3. It counts as cell-based, human. An excerpt: The miRNAs Oligo (Thermofisher) used for silencing were annealed to form double-stranded DNA, which was then linked to the miR RNAi Expression Vector using T4 DNA ligase to create the knockdown vector. Specifically, the procedure followed the miR RNAi Expression Vector Kit manual (BLOCK-i™ Pol II miR RNAi Expression Vector Kit with EmGFP (Catalog number: K493600)).
Since Aβ25-35 peptide produced similar effects (enhancing VGSC activity, lowering the excitability threshold) as glutamine, it was considered that Aβ25-35 peptide might also act on T1R2/T1R3 receptors like glutamine. Therefore, in this implementation example, we used HEK-Nav1.5 cells with silenced T1R3 and compared the effect of Aβ25-35 peptide on VGSC with that in control HEK-Nav1.5 cells.
To strengthen these findings, we conducted similar experiments using HEK Nav1.5 cells in which T1R3 expression was silenced (FIG. 22). We measured VGSC currents in T1R3-silenced HEK Nav1.5 cells, applying stimuli every 8 seconds.

Data set [7] concerns endogenous T1R GPCR of HEK cells. Nature of the data set: Intracellular calcium (Cal-520) in HEK cells stably expressing Nav1.1 with endogenous T1R GPCR. It counts as cell-based, human. The note with it: 10 nM then 20 nM for Aβ1-40 and Aβ1-42. As to the method: Specifically, experiments were conducted as follows using HEK cells stably expressing Nav1.1 (FIG. 45). The calcium-sensitive reagent (Cal-520, AAT Bioquest) was incubated at 37° C. for 60 minutes, followed by incubation at room temperature for 30 minutes, and then changes in intracellular calcium were measured using a fluorescence microscope. […] Initially, 10 nM, followed by 20 nM of Aβ1-40 was applied after 5 minutes (arrow). […] A total of 6 cell groups from two independent experiments were measured, averaged by the maximum fluorescence response value, and the mean and standard error (stderr) were calculated and plotted. […] 10 nM, followed by 20 nM of Aβ1-42 was applied after 5 minutes (arrow). […] A total of 12 cell groups from two independent experiments were measured, averaged by the minimum fluorescence response value, and the mean and standard error (stderr) were calculated and plotted. Similar to the experimental results using the patch-clamp method when Aβ peptide was applied to Nav1.5, it was confirmed from intracellular calcium measurements that the effects of Aβ1-40 and Aβ1-42 were different.

The subject of data set [8] is Nav1.6. The data set is described as follows: Patch-clamp recording of VGSC current in HEK (Nav1.6) cells. It counts as cell-based, human. An excerpt: The cells used in the previous (18-1) experiment were cardiac-type VGSC cells. In this experiment, HEK (Nav1.1) and HEK (Nav1.6) cells, which are considered neuronal VGSC cells, were created. The effects of four peptides—Aβ25-35, Aβ1-38, Aβ1-40, and Aβ1-42—were examined using the same experimental protocol as in (18-1). […]

Data set [9] deals with SH-SY5Y cells. The data set is described as follows: Action potentials of differentiated SH-SY5Y cells (current clamp, NanoCharge method). The note with it: listed as Aβ25-35 peptide. It counts as cell-based, human. As to the method: Next, using the current-clamp mode, we applied current stimulation and recorded action potentials from differentiated SH-SY5Y cells (FIG. 5, from the lower to the upper part of the figure, rectangular wave current stimulation was applied. The current strengths were 6, 8, 10, and 12 pA from the bottom). Before the application of Aβ25-35 peptide, action potentials were not induced at stimulation currents of 6 pA and 8 pA, but action potentials were recorded at stronger stimulation currents (10 pA and 12 pA).
By using magnetic conductive nanoparticles as intracellular electrodes for measuring the neuronal action potentials of differentiated SH-SY5Y cells, and combining this with a capacitive potential detection device to measure changes in intracellular potentials, the spontaneous action potentials of these cells were measured. Specifically, 6.25 nM of the T1R3 agonist Aβ25-35 peptide was added to 400 μl of SH-SY5Y cell culture medium, and the spontaneous action potentials before and after the addition of Aβ25-35 peptide were measured to observe the changes.
This membrane potential recording method focuses on the magnetic conductive nanoparticles penetrating the cell membrane, the cover glass on which the cells are seeded, and the electrode placed below the cover glass forming a capacitor. The charge (Q) charged to this capacitor is recorded as the membrane potential in terms of charge rather than voltage changes. Since the charge (Q) is obtained from Q=CV, where C is the capacitance and V is the potential, the charge changes measured here are influenced by the capacitor (C) (FIG. 43).

Data set [10] deals with HEK Nav1.5 cells. Nature of the data set: GFP-Tubulin / GFP-Actin cytoskeleton observation in HEK Nav1.5 cells. It counts as cell-based, human. The note with it: MSG 5 mM. From the text: To observe the impact of cinacalcet and Aβ1-42 peptide on microfilament (actin) fiber structures, we labeled cells with GFP-Actin (FIG. 34). […] This experimental approach, using GFP-Tubulin, GFP-Actin, or other fluorescent proteins to label microtubules and microfilaments, can be used to screen compounds that regulate the activity of ion channels and neuronal function-controlling proteins. Additionally, simultaneous labeling of tubulin and actin can be achieved using fluorescent antibodies or phalloidin after cell fixation.

Data set [11] has as its system VGSC of SH-SY5Y cells (Nav1.7, Nav1.2, Nav1.3). The data set is described as follows: Patch-clamp recording of VGSC current in differentiated SH-SY5Y cells. It counts as cell-based, human. The settings on record: 1-6 μM (2 μM in FIG. 4); listed as Aβ25-35 peptide. From the text: Furthermore, the inventors focused on the relationship between taste receptors, particularly the sweet or umami receptors containing the T1R3 subunit, which are widely expressed in the brain and nervous system, including the hippocampus and cortex. They used human neuroblastoma cells (SH-SY5Y) that functionally express Nav1.2, Nav1.3, and Nav1.7 (as reported in non-patent literature 8), as well as HEK cells stably expressing Nav1.5 (with endogenous expression of T1R1, T1R2, and T1R3). They observed the effects of taste stimuli on sodium channel activation. By reducing the expression of T1R1 and T1R3 genes using silencing vectors, they confirmed that the effects on sodium channel currents induced by taste stimuli act through taste receptor GPCRs.
The SH-SY5Y cell culture medium was prepared by mixing DMEM (Sigma-Aldrich) and F-12 (Sigma-Aldrich) in equal proportions. To induce neuronal-like differentiation, the medium contained 1% FBS (BioWest), 5% 40 mM L-Glutamine (Fuji Film), and 1% MEM non-essential amino acids (Wako Pure Chemical Industries). During differentiation, SH-SY5Y cells were cultured for at least 5 days with the addition of 10 μM/ml retinoic acid (Fuji Film). In this document, “SH-SY5Y cells” refer to the SH-SY5Y cell line differentiated into neuronal-like cells.

Several values for one entry are separate records, joined by “and”; a condition that tells them apart may be missing. Equal entries are not always repeated. Entries after “also recorded” stand apart in the source; their conditions may differ. Where two headings read alike, the source gives them in different places.

For Aspartame, the “Change in cell morphology” value in data set [1] is “contracted cell morphology; also recorded: cell contraction”. For the same substance, the IC50 (usually the concentration that inhibits the measured activity by half) in data set [2] was 17 µM; in [3] (listed as aspartame), 15 to 17 µM and < 17 µM; in [3], less than 50 µM; in data set [4] (prepulse −70 mV), 15.3 µM; in data set [4] (prepulse −100 mV), 49.7 µM. For the same substance, the “Effects on VGSCs” value in [3] is “Inhibition of VGSCs”. In addition, the “Inhibition of VGSC” value in data set [3] (50 μM) is > 90%. Inhibition is due to a parallel shift.
With “Aβ1-38: amyloid β peptide (Peptide Institute), Sequence No. 2”, in [5], the “Effect on VGSC current” value is “VGSC enhancement”. The “Effect on VGSC in T1R3-silenced cells” value in [6] is “is lost”. Besides, the “Change in intracellular calcium” value in data set [7] was “an increase in intracellular calcium was observed”. Further, in [4], the “Effect on VGSC inactivation” value is given as “delayed inactivation effect”, the “Shift of steady-state inactivation (S-S) curve of VGSC” value is reported as “shifted to the right; also recorded: shifting to the depolarizing side”, the “VGSC current from prepulse/holding potential −80 mV” value was “enhancing currents; also recorded: significantly amplified” and the “VGSC current from prepulse/holding potential −120 mV” value is “decreased; also recorded: slightly decreased”. Besides, the “Effect on VGSC current” value in [8] was “VGSC enhancement”.
As for GSNKGAIIGLM [Aβ25-35], the “Effect on VGSC current” value in data set [5] was “VGSC enhancement”; in [3] (125 nM to 2 μM), “Ab25-35 (125 nM to 2 μM) enhances”; in [4] (1 μM, control HEK Nav1.5 cells), “enhancing effect; also recorded: enhancement effect”; in [8], “VGSC enhancement”. In addition, in [9] (6.25 nM, NanoCharge method), the “Frequency of spontaneous action potentials” value was “an increase in spontaneous action potential frequency; also recorded: an increase in the frequency of spontaneous action potentials”. In addition, in data set [9] (current clamp, 6-12 pA stimulation), the “Excitability / action potential threshold” value is reported as “increased the excitability of SH-SY5Y cells; also recorded: threshold for generating action potentials was lowered”. Moreover, the figures for the “Effect on VGSC in T1R3-silenced cells” value in data set [6] and in [6] (listed as ab25-35) were “is lost” and “T1R3 silencing nullifies ab25-35's”, respectively. Besides, the “Change in VGSC” value in data set [6] (2 μM) was “no change in VGSC was observed”. Moreover, the “Microtubule fibrous structure (GFP-Tubulin)” value in data set [10] is given as “disappearance of microtubule-like structures”. In [3], the “Effects on VGSCs” value is recorded as “Enhancement of VGSC”. Moreover, in data set [3] (12.5 nM, colchicine 2.25 μM), the “Effect on VGSC current in the presence of colchicine” value is recorded as “inhibits Aβ25-35-induced enhancement; also recorded: no further enhancement of VGSC current was observed”. In addition, in data set [3] (12.6 μM LatA, Aβ25-35 printed 12.5 μM), the “Effect on VGSC current in the presence of Latrunculin A” value is on record as “VGSC amplification; also recorded: doubled”. The figures for the “Enhancement of VGSC current at high(er) concentration” value in data set [3] and in data set [3] (listed as Ab25-35) were “VGSC current but not at higher” and “Ab25-35 is suppressed”, respectively. The “Change in intracellular calcium” value in data set [7] is “an increase in intracellular calcium was observed”. Further, in [11], the “Effect on VGSC inward current” value was “enhancement of transient downward VGSC current; also recorded: enhancement of VGSC inward current”. Also, the “Cell membrane capacitance and VGSC current” value in data set [4] (12.5 nM, perforated patch-clamp) was “increase in cell membrane capacitance and VGSC current”. The “Cell membrane capacitance and VGSC currents” value is given as “increased” in data set [4] (120 nM, perforated patch-clamp) and “decreased to control levels” in [4] (240 nM, perforated patch-clamp). In data set [4] (control without anti-T1R3 antibody pre-treatment), the “Increase in VGSC current amplitude” value is 10-20%. In addition, in data set [4] (low concentration, perforated patch-clamp), the “VGSC current density (pA/pF)” value is “current density of VGSC increased”.
